From patent US20100179188A1, “NITROXIDE RADICAL AS TREATMENT FOR NEURODEGENERATION” (Office of Technology Transfer, NIH, priority 2007, published 2010)

What was measured:
[1] = test system: ferritin; assay: Western blot of ferritin in cerebellar lysates; format: in vivo; conditions: cerebellar lysates of IRP2−/− mice, Tempo1 diet vs control diet
Procedure: Diet: The mice were weaned 3-4 weeks after their birth. Immediately after weaning, mice were maintained on either a Tempo1-supplemented or control diet. In the Tempo1-supplemented diet, powdered Tempo1 was uniformly mixed with bacon-flavored mouse chow by a “cold press” technique (Bio-Serv, Frenchtown, N.J., USA) at a concentration of 10 mg/g of food. Bacon-flavored chow without Tempo1 was used as the control diet.
Tissue and lysate preparation: Animals were euthanized and tissues were frozen in liquid nitrogen immediately after harvesting, and stored at −80° C. under argon. Experiments were performed on tissues that were pulverized in liquid N2-cooled mortars in an anaerobic chamber, and then lysed in lysis buffer that was deaerated by cyclic freezethaw and air-removal with argon. Nuclei and debris were removed by centrifugation. Preparations of lysates for assays of IRP1 activity, western blotting, carbonyl assay and protein analysis were performed anaerobically. […]
Cerebellar lysates from wild-type and IRP2−/− mice that were maintained on a control diet or on a Tempo1-supplemented diet were analyzed for ferritin and actin expression. […] Quantification was performed with the NIH Image program. Error bars represent the standard deviation calculated from the results of three different sets of animals. […]

[2] = biological target: T1, purified holo-IRP1 (Homo sapiens, UniProt P21399); assay: IRE gel shift assay on purified holo-IRP1; format: biochemical
T1 sequence (P21399 1-889): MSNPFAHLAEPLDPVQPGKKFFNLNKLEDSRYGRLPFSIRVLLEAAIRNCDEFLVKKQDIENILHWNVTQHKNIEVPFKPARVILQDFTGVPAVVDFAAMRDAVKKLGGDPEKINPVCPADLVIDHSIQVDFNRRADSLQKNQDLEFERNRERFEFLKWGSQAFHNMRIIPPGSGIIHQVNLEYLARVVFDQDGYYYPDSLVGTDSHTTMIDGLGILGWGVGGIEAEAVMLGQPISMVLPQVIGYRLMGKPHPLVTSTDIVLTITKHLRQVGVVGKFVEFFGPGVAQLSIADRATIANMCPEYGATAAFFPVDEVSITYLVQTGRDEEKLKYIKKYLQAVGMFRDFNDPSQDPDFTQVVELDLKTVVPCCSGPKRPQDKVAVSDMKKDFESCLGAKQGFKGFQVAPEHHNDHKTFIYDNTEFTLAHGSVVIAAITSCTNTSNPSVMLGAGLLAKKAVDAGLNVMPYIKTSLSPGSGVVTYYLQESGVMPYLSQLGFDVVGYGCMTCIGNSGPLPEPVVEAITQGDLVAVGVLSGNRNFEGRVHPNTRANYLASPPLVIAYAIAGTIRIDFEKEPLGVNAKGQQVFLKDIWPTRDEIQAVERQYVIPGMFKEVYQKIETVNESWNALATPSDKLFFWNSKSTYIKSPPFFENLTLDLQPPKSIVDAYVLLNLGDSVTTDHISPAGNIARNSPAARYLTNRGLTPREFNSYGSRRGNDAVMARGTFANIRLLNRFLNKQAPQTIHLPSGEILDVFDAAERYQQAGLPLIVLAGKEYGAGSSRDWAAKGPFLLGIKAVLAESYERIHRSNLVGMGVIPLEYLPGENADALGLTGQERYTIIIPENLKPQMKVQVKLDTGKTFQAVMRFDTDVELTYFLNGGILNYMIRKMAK
Procedure: RNA mobility shift assays: Gel retardation assays were performed as described in Meyron-Holtz et al., EMBO J, 23, 386-395 (2004). Tissue lysates were prepared in an anaerobic chamber as described above in oxygen-depleted lysis buffer containing 10 mM HEPES (pH 7.2), 3 mM MgC12, 40 mM KCl, 5% glycerol, 0.2% Nonidet P-40, 5 mM DTT, 1 mM AEBSF, 10 μg/ml. Leupeptin and complete TM EDTA free protease inhibitor cocktail (Roche Applied Science, Indiana). Lysate (x μl) containing 10 μg of total protein was added to (12.5−x) μl of bandshift buffer containing 25 mM Tris-HCl (pH 7.5) and 40 mM KCl. The samples were incubated for 5 min at room temperature (RT) with 12.5 μl of a reaction cocktail containing 20% glycerol, 0.2 U/μl Super RNAsine (Ambion, Tex.), 0.6 μg/μl yeast t-RNA, 5 mM DTT and 20 nM 32P-labelled IRE from human ferritin H-chain gene in 25 mM Tris-HCl (pH 7.5) and 40 mM KCl. A measure of 20 μl of this reaction mixture was loaded into a 10% acrylamide/TBE gel, which was run at 200 V for 2.15 h, and then the gel was fixed, dried and exposed for autoradiography.
Soum et al., J. Biol Inorg Chem, 8, 226-232 (2003). IRE-binding activity of purified holo-IRP1 (11 ng) was assessed by an IRE gel shift assay. Purified protein (11 ng) was incubated with 0.1% β-mercaptoethanol for 2 h at room temperature without (lane 1) or with (lane 2) 1 mM tempol. Sample in lane 3 was treated with 2% β-mercaptoethanol for 2 min after 2 h incubation without tempol.

CC1(C)CC(O)CC(C)(C)N1[O] [Tempo1]
ferritin levels [1]: reduced | recruitment of IRE-binding activity ([2]; holo-IRP1, 1.0 mM, 3 h at 37° C., FIG. 6b): almost completely recruited | IRE binding activity vs IRP1 exposed to room air alone ([2]; purified holo-IRP1, 2 h at room temperature and 3 h at 37° C.): much higher | IRE binding activity of IRP1 ([2]; purified holo-IRP1 treated with Tempo1): increased
